# Assay results from US20100048564A1, “FUSED BICYCLIC HETEROARYL DERIVATIVE” (DAIICHI SANKYO COMPANY, LIMITED, priority 2007, published 2010).
# Test system: KK mice
# Test: Hypoglycemic effect in diabetic KK mice (Test Example 1)
# Format: in vivo
# Details: Mus musculus, po, 72 h; male KK mice, diet admixture containing 0.03% of the compound, 3 days, plasma glucose vs control group; read-out: Hypoglycemic rate (%)
# Source text: Six-week-old male KK mice were purchased from CLEA Japan, Inc. and then were fed until 15 to 20 weeks old to develop diabetes. The mice were individually fed during the adaptation period and the test period, and water and feed (FR2, Funabashi Farm) were freely ingested.
# At the start of the experiment, after body weight measurement, blood was collected from the tail vein of the mice into a heparin-coated glass tube and centrifuged, and then plasma was separated. The glucose level in the plasma was measured by Glucoloader GXT (A&T Corp.), and individuals having a plasma glucose level of about 350 mg/dl or more were selected. The mice were grouped, each group having 3 to 4 mice, to make the average body weight and the average plasma glucose level similar. Each compound was administered to a compound group with a diet admixture containing 0.03% of the compound. A separate group in which the mice were fed only with diet was a control group.
# The experiment period (drug administration period) was three days. The grouping day was the 0th day. On the 3rd day, the body weight was measured and blood was collected from the tail vein to measure the plasma glucose level.
# The hypoglycemic rate was determined by the following formula.
# Hypoglycemic rate=[(Control group blood glucose level−Compound-administered group blood glucose level)/Control group blood glucose level]×100
row,SMILES,inhibition in vivo at 0.03 % in diet
1,"Cn1c(COc2cccc(C(=O)O)c2)nc2ccc(Oc3ccccc3F)cc21 [Example 28, 3-{[6-(2-Fluorophenoxy)-1-methyl-1H-benzimidazol-2-yl]methoxy}benzoic acid]",61%
2,"COc1cccc(Oc2ccc3nc(COc4cccc(C(=O)O)c4)n(C)c3c2)c1 [Example 29, 3-{[6-(3-Methoxyphenoxy)-1-methyl-1H-benzimidazol-2-yl]methoxy}benzoic acid]",60%
3,"Cl.Cn1c(COc2cccc(C(=O)O)c2)nc2ccc(Oc3cccc(Cl)c3)cc21 [Example 31, 3-[6-(3-Chlorophenoxy)-1-methyl-1H-benzimidazol-2-ylmethoxy]benzoic acid hydrochloride]",47%
4,"Cn1c(COc2cccc(C(=O)O)c2)nc2ccc(Oc3cccc(OC(F)(F)F)c3)cc21 [Example 33, 3-({1-Methyl-6-[3-(trifluoromethoxy)phenoxy]-1H-benzimidazol-2-yl}methoxy]benzoic acid]",42%
5,"Cn1c(COc2cccc(C(=O)O)c2)nc2ccc(Oc3cc(F)ccc3F)cc21 [Example 41, 3-{[6-(2,5-Difluorophenoxy)-1-methyl-1H-benzimidazol-2-yl]methoxy}benzoic acid]",51%
6,"CCc1cccc(Oc2ccc3nc(COc4cccc(C(=O)O)c4)n(C)c3c2)c1 [Example 42, 3-{[6-(3-Ethylphenoxy)-1-methyl-1H-benzimidazol-2-yl]methoxy}benzoic acid]",29%
7,"Cc1ccc(Oc2ccc3nc(COc4cccc(C(=O)O)c4)n(C)c3c2)cc1 [Example 49, 3-{[1-Methyl-6-(4-methylphenoxy)-1H-benzimidazol-2-yl]methoxy}benzoic acid]",48%
8,"COc1cc(Oc2ccc3nc(COc4cccc(C(=O)O)c4)n(C)c3c2)ccc1C [Example 54, 3-{[6-(3-Methoxy-4-methylphenoxy)-1-methyl-1H-benzimidazol-2-yl]methoxy}benzoic acid]",32%
9,"Cc1ccc(Oc2ccc3nc(COc4cccc(C(=O)O)c4)n(C)c3c2)cc1C [Example 55, 3-{[6-(3,4-Dimethylphenoxy)-1-methyl-1H-benzimidazol-2-yl]methoxy}benzoic acid]",44%
10,"Cn1c(COc2cc(F)cc(C(=O)O)c2)nc2ccc(Oc3ccc(Cl)c(F)c3)cc21 [Example 59, 3-{[6-(4-Chloro-3-fluorophenoxy)-1-methyl-1H-benzimidazol-2-yl]methoxy}-5-fluorobenzoic acid]",47%
11,"CCC(CC)Oc1ccc2nc(COc3cccc(C(=O)O)c3)n(C)c2c1 [Example 67, 3-{[6-(1-Ethylpropoxy)-1-methyl-1H-benzimidazol-2-yl]methoxy}benzoic acid]",50%
12,"Cc1ccc(Oc2ccc3nc(COc4cccc(C(=O)O)c4)n(C)c3n2)cc1 [Example 69, 3-{[3-Methyl-5-(4-methylphenoxy)-3H-imidazo[4,5-b]pyridin-2-yl]methoxy}benzoic acid]",43%
13,"Cc1ccc(Oc2ccc3nc(COc4cccc(C(=O)O)c4)n(C)c3n2)cc1C [Example 70, 3-{[5-(3,4-Dimethylphenoxy)-3-methyl-3H-imidazo[4,5-b]pyridin-2-yl]methoxy}benzoic acid]",38%
14,"Cc1ccc(Oc2ccc3nc(COc4cc(F)cc(C(=O)O)c4)n(C)c3n2)cc1 [Example 72, 3-Fluoro-5-{[3-methyl-5-(4-methylphenoxy)-3H-imidazo[4,5-b]pyridin-2-yl]methoxy}benzoic acid]",42%

# Test system: not given
# Test: not given
# Details: not given
row,melting point,SMILES
1,195 to 208 °C,COC(=O)c1cccc(OCc2nc3ccc(Oc4cccnc4)cc3n2C)c1.Cl.Cl
2,218 to 222 °C,"Cl.Cn1c(COc2cccc(C(=O)O)c2)nc2ccc(Oc3cccc(Cl)c3)cc21 [Example 31, 3-[6-(3-Chlorophenoxy)-1-methyl-1H-benzimidazol-2-ylmethoxy]benzoic acid hydrochloride]"
3,221 to 227 °C,"Cn1c(COc2cccc(C(=O)O)c2)nc2ccc(Oc3cccc(OC(F)(F)F)c3)cc21 [Example 33, 3-({1-Methyl-6-[3-(trifluoromethoxy)phenoxy]-1H-benzimidazol-2-yl}methoxy]benzoic acid]"
4,209 to 213 °C,"Cn1c(COc2cccc(C(=O)O)c2)nc2ccc(Oc3cc(F)cc(Cl)c3)cc21 [Example 38, 3-{[6-(3-Chloro-5-fluorophenoxy)-1-methyl-1H-benzimidazol-2-yl]methoxy}benzoic acid]"
5,224 to 226 °C,"Cc1cc(F)cc(Oc2ccc3nc(COc4cccc(C(=O)O)c4)n(C)c3c2)c1 [Example 40, 3-{[6-(3-Fluoro-5-methylphenoxy)-1-methyl-1H-benzimidazol-2-yl]methoxy}benzoic acid]"
6,204 to 208 °C,"CCc1cccc(Oc2ccc3nc(COc4cccc(C(=O)O)c4)n(C)c3c2)c1 [Example 42, 3-{[6-(3-Ethylphenoxy)-1-methyl-1H-benzimidazol-2-yl]methoxy}benzoic acid]"
